Laboratory results published in patent US20030161862A1, “Bacterial growth regulators or inhibitors with the use of 1,5-d-anhydrofructose” (priority 2000, published 2003).
Entries after “also recorded” stand apart in the source; their conditions may differ.

How the values were obtained:
Format in all cases: cell-based
Bacillus cereus IFO 3131 = test: growth suppression/inhibition on agar media, colonies observed visually
Protocol: (§1) Under the circumstances, influences on growth of a variety of bacteria in the presence of 1,5-D-anhydrofructose with or without sodium ascorbate which is a typical antioxidant to be used in food and beverages were examined.
(§2) After the bacterial strains were suspended in physiological salt solutions, they were inoculated into agar media (each containing 0.25% of yeast extract, 0.5% of polypeptone, […]) with platinum loops and then cultured at 37° C. until colonies were formed. Thereafter, the bacteria were inoculated, with sterilized toothpicks, from the colonies into agar media of the above composition each of which contained 1.0% of sodium ascorbate and 1.0% of 1,5-D-anhydrofructose, and into agar media of the above composition each of which contained 1.0% of 1,5-D-anhydrofructose and no sodium ascorbate. For controls, culture media of the same composition each of which contained neither sodium ascorbate nor 1,5-D-anhydrofructose and culture media of the same composition each of which contained 1.0% of sodium ascorbate and no 1,5-D-anhydrofructose were used. Abilities of sodium ascorbate and 1,5-D-anhydrofructose to suppress/inhibit growth of the bacteria were evaluated by visually observing the colonies formed after the bacteria were cultured at 37° C. for one night.
(§3) The substances were used at concentrations shown in the legend of Table 4.
(§4) Those cultured in the absence of the chelating agents, 1,5-D-anhydrofructose, sodium ascorbate and sodium erythorbate were taken as controls. As for an agar medium, a method for inoculating the bacteria, conditions for culturing the bacteria, and a method for evaluating a growth suppressing/inhibiting ability, they are the same as those used in the tests whose results are shown in Tables 2 and 3.

[1] = tested on: Escherichia coli IFO 3301; test: as above
Protocol: as §1, §2, §3, §4

[2] = tested on: Lactobacillus casei ATCC 393; test: as above
Protocol: as §1, §2, §3, §4

[3] = tested on: Proteus vulgaris IFO 3851; test: as above
Protocol: as §1, §2, §3, §4

[4] = tested on: Bacillus subtillis IFO 3009; test: as above; conditions: agar medium pH 6.5, 37° C. one night
From the text: as §1
(§5) After the bacterial strains were suspended in physiological salt solutions, they were inoculated into agar media (each containing 0.25% of yeast extract, 0.5% of polypeptone, 1.0% of glucose and 1.5% of soft agar and having a pH of 6.5) with platinum loops and then cultured at 37° C. until colonies were formed. Thereafter, the bacteria were inoculated, with sterilized toothpicks, from the colonies into agar media of the above composition each of which contained 1.0% of sodium ascorbate and 1.0% of 1,5-D-anhydrofructose, and into agar media of the above composition each of which contained 1.0% of 1,5-D-anhydrofructose and no sodium ascorbate. For controls, culture media of the same composition each of which contained neither sodium ascorbate nor 1,5-D-anhydrofructose and culture media of the same composition each of which contained 1.0% of sodium ascorbate and no 1,5-D-anhydrofructose were used. Abilities of sodium ascorbate and 1,5-D-anhydrofructose to suppress/inhibit growth of the bacteria were evaluated by visually observing the colonies formed after the bacteria were cultured at 37° C. for one night.
as §3, §4

[5] = tested on: Enterobactor cloacae JCM 1232; test: as above; conditions: agar medium pH 6.5, 37° C. one night
From the text: as §1, §5, §3, §4

[6] = tested on: Pseudomonas aeruginosa IFO 12689; test: as above; conditions: agar medium pH 6.5, 37° C. one night
From the text: as §1, §5, §3, §4

[7] = tested on: Streptococcus eqinus ATCC 9812; test: as above; conditions: agar medium pH 6.5, 37° C. one night
From the text: as §1, §5, §3, §4

gram-positive bacteria = test: minimum growth inhibitory concentration / growth inhibition in agar media; conditions: for growth inhibitory effect against gram-positive bacteria: 0.5%, used independently, agar medium pH 7.0
Protocol: (§6) When a variety of bacteria are cultured in agar media in the presence of 1,5-D-anhydrofructose without any of an antioxidant or a chelating agent, a minimum growth inhibitory concentration of 1,5-D-anhydrofructose is 3.0 to 5.0% for gram-negative bacteria and 1.0 to 3.0% for gram-positive bacteria. Under the circumstances, influences on growth of a variety of bacteria in the presence of 1,5-D-anhydrofructose with or without sodium ascorbate which is a typical antioxidant to be used in food and beverages were examined.
as §2, §3

[8] = tested on: Pseudomonas aeruginosa IFO 12689; test: growth suppression/inhibition on agar media, colonies observed visually; conditions: agar medium pH 7.0, 37° C. one night; BHA 0.5%, BHT 0.5%, 1,5-D-anhydrofructose 1%
[9] = tested on: Enterobactor cloacae JCM 1232; test: as above; conditions: agar medium pH 7.0, 37° C. one night; BHA 0.5%, BHT 0.5%, 1,5-D-anhydrofructose 1%
[10] = tested on: Bacillus subtillis IFO 3009; test: as above; conditions: agar medium pH 7.0, 37° C. one night; BHA 0.5%, BHT 0.5%, 1,5-D-anhydrofructose 1%
[11] = tested on: Streptococcus eqinus ATCC 9812; test: as above; conditions: agar medium pH 7.0, 37° C. one night; BHA 0.5%, BHT 0.5%, 1,5-D-anhydrofructose 1%
[12] = tested on: a variety of bacteria (strains of Table 1); test: growth suppression on agar media, summary statements for all tested bacteria; conditions: for growth suppressing ability when solely used: solely used at the concentrations of the tests (sodium ascorbate 1.0%, sodium erythorbate 0.2%, chelating agents 0.2-0.5%); for effect of enhancing the growth suppressing effect of 1,5-D-anhydrofructose: co-presence with 1,5-D-anhydrofructose, no data shown
Protocol: as §6, §5, §4

[13] = agar medium pH 6.5, 37° C. one night, 1,5-D-anhydrofructose 1%, sodium citrate 0.5%, sodium polyphosphate 0.2%, sodium malate 0.5%, sodium gluconate 0.5%, sodium tartrate 0.5%, sodium ascorbate 1%, sodium erythorbate 0.2%
[14] = agar medium pH 6.5, 37° C. one night, sodium ascorbate 1%, 1,5-D-anhydrofructose 1%
[15] = agar medium pH 6.5, 37° C. one night, sodium erythorbate 0.2%, 1,5-D-anhydrofructose 1%
[16] = agar medium pH 7.0, 37° C. one night, BHA 0.5%, BHT 0.5%, 1,5-D-anhydrofructose 1%
[17] = 1,5-D-anhydrofructose 1%, sodium citrate 0.5%, sodium polyphosphate 0.2%, sodium malate 0.5%, sodium gluconate 0.5%, sodium tartrate 0.5%, sodium ascorbate 1%, sodium erythorbate 0.2%
[18] = sodium ascorbate 1%, 1,5-D-anhydrofructose 1%
[19] = sodium erythorbate 0.2%, 1,5-D-anhydrofructose 1%

## O=C1CO[C@H](CO)[C@@H](O)[C@@H]1O [1,5-D-anhydrofructose]
Bacillus cereus IFO 3131; [13]
  condition of the colonies: ±
Bacillus cereus IFO 3131; [14]
  condition of the colonies: ±
Bacillus cereus IFO 3131; [15]
  condition of the colonies: ±
Bacillus cereus IFO 3131; [16]
  condition of the colonies: ±
[1]; [13]
  condition of the colonies: +
[1]; [14]
  condition of the colonies: +
[1]; [15]
  condition of the colonies: +
[1]; [16]
  condition of the colonies: +
[2]; [13]
  condition of the colonies: ±
[2]; [14]
  condition of the colonies: ±
[2]; [15]
  condition of the colonies: ±
[2]; [16]
  condition of the colonies: ±
[3]; [13]
  condition of the colonies: ±
[3]; [14]
  condition of the colonies: ±
[3]; [15]
  condition of the colonies: ±
[3]; [16]
  condition of the colonies: ±
[4]; [17]
  condition of the colonies: +
[4]; [18]
  condition of the colonies: +
[4]; [19]
  condition of the colonies: +
[5]; [17]
  condition of the colonies: +
[5]; [18]
  condition of the colonies: +
[5]; [19]
  condition of the colonies: +
[6]; [17]
  condition of the colonies: +
[6]; [18]
  condition of the colonies: +
[6]; [19]
  condition of the colonies: +
[7]; [17]
  condition of the colonies: ±
[7]; [18]
  condition of the colonies: ±
[7]; [19]
  condition of the colonies: ±
gram-positive bacteria; agar media, without any antioxidant or chelating agent
  minimum growth inhibitory concentration: 1.0 to 3.0%
[8]
  condition of the colonies: +
[9]
  condition of the colonies: +
[10]
  condition of the colonies: +
[11]
  condition of the colonies: ±

## COc1ccc(O)c(C(C)(C)C)c1 [BHA, butylhydroxyanisol]
Bacillus cereus IFO 3131; [16]
  condition of the colonies: −
[1]; [16]
  condition of the colonies: −
[2]; [16]
  condition of the colonies: −
[3]; [16]
  condition of the colonies: −
gram-positive bacteria
  growth inhibitory effect against gram-positive bacteria: exhibited a growth inhibitory effect against all of the examined gram-positive bacteria
[8]
  condition of the colonies: +
[9]
  condition of the colonies: ±
[10]
  condition of the colonies: −
[11]
  condition of the colonies: −

## Cc1cc(C(C)(C)C)c(O)c(C(C)(C)C)c1 [BHT, dibutylhydroxytoluene]
Bacillus cereus IFO 3131; [16]
  condition of the colonies: −
[1]; [16]
  condition of the colonies: +
[2]; [16]
  condition of the colonies: −
[3]; [16]
  condition of the colonies: ±
gram-positive bacteria
  growth inhibitory effect against gram-positive bacteria: exhibited a growth inhibitory effect against all of the examined gram-positive bacteria
[8]
  condition of the colonies: +
[9]
  condition of the colonies: +
[10]
  condition of the colonies: −
[11]
  condition of the colonies: −

## O=C1O[C@H]([C@@H](O)CO)C([O-])=C1O.[Na+] [sodium ascorbate]
Bacillus cereus IFO 3131; [13]
  condition of the colonies: +
Bacillus cereus IFO 3131; [14]
  condition of the colonies: +
[1]; [13]
  condition of the colonies: +
[1]; [14]
  condition of the colonies: +
[2]; [13]
  condition of the colonies: +
[2]; [14]
  condition of the colonies: +
[3]; [13]
  condition of the colonies: +
[3]; [14]
  condition of the colonies: +
[4]; [17]
  condition of the colonies: +
[4]; [18]
  condition of the colonies: +
[5]; [17]
  condition of the colonies: +
[5]; [18]
  condition of the colonies: +
[6]; [17]
  condition of the colonies: +
[6]; [18]
  condition of the colonies: +
[7]; [17]
  condition of the colonies: +
[7]; [18]
  condition of the colonies: +
[12]
  growth suppressing ability when solely used: does not have a growth suppressing ability against any of the bacteria; also recorded: do not inhibit growth of the bacteria

## O=C([O-])CC(O)(CC(=O)[O-])C(=O)[O-].[Na+].[Na+].[Na+] [sodium citrate]
Bacillus cereus IFO 3131; [13]
  condition of the colonies: +
[1]; [13]
  condition of the colonies: +
[2]; [13]
  condition of the colonies: +
[3]; [13]
  condition of the colonies: +
[4]; [17]
  condition of the colonies: +
[5]; [17]
  condition of the colonies: +
[6]; [17]
  condition of the colonies: +
[7]; [17]
  condition of the colonies: +

## O=C1O[C@H]([C@H](O)CO)C([O-])=C1O.[Na+] [sodium erythorbate]
Bacillus cereus IFO 3131; [13]
  condition of the colonies: +
Bacillus cereus IFO 3131; [15]
  condition of the colonies: +
[1]; [13]
  condition of the colonies: +
[1]; [15]
  condition of the colonies: +
[2]; [13]
  condition of the colonies: +
[2]; [15]
  condition of the colonies: +
[3]; [13]
  condition of the colonies: +
[3]; [15]
  condition of the colonies: +
[4]; [17]
  condition of the colonies: +
[4]; [19]
  condition of the colonies: +
[5]; [17]
  condition of the colonies: +
[5]; [19]
  condition of the colonies: +
[6]; [17]
  condition of the colonies: +
[6]; [19]
  condition of the colonies: +
[7]; [17]
  condition of the colonies: +
[7]; [19]
  condition of the colonies: +
[12]
  growth suppressing ability when solely used: do not inhibit growth of the bacteria

## O=C([O-])[C@H](O)[C@@H](O)[C@H](O)[C@H](O)CO.[Na+] [sodium gluconate]
Bacillus cereus IFO 3131; [13]
  condition of the colonies: +
[1]; [13]
  condition of the colonies: +
[2]; [13]
  condition of the colonies: +
[3]; [13]
  condition of the colonies: +
[4]; [17]
  condition of the colonies: +
[5]; [17]
  condition of the colonies: +
[6]; [17]
  condition of the colonies: +
[7]; [17]
  condition of the colonies: +

## O=C([O-])CC(O)C(=O)[O-].[Na+].[Na+] (stereo not shown) [sodium malate]
Bacillus cereus IFO 3131; [13]
  condition of the colonies: +
[1]; [13]
  condition of the colonies: +
[2]; [13]
  condition of the colonies: +
[3]; [13]
  condition of the colonies: +
[4]; [17]
  condition of the colonies: +
[5]; [17]
  condition of the colonies: +
[6]; [17]
  condition of the colonies: +
[7]; [17]
  condition of the colonies: +

## O=C([O-])C(O)C(O)C(=O)[O-].[Na+].[Na+] (stereo not shown) [sodium tartrate]
Bacillus cereus IFO 3131; [13]
  condition of the colonies: +
[1]; [13]
  condition of the colonies: +
[2]; [13]
  condition of the colonies: +
[3]; [13]
  condition of the colonies: +
[4]; [17]
  condition of the colonies: +
[5]; [17]
  condition of the colonies: +
[6]; [17]
  condition of the colonies: +
[7]; [17]
  condition of the colonies: +

## catechin
[12]
  effect of enhancing the growth suppressing effect of 1,5-D-anhydrofructose: exhibit the above effect

## sodium polyphosphate
Bacillus cereus IFO 3131; [13]
  condition of the colonies: +
[1]; [13]
  condition of the colonies: +
[2]; [13]
  condition of the colonies: +
[3]; [13]
  condition of the colonies: +
[4]; [17]
  condition of the colonies: +
[5]; [17]
  condition of the colonies: +
[6]; [17]
  condition of the colonies: +
[7]; [17]
  condition of the colonies: +

## tocopherol
[12]
  effect of enhancing the growth suppressing effect of 1,5-D-anhydrofructose: exhibit the above effect
